Source: publication PMC9609317, “Evaluation of Metabolism of a Defined Pesticide Mixture through Multiple In Vitro Liver Models” (Toxics, 2022)

Assays:
[1] = system: induced pluripotent stem cell-derived hepatocytes (iHep) suspension; experiment: iHep suspension, nontargeted IMS-MS analysis (clearance, metabolite formation, mass balance); assay type: in vitro ADME, human; details: for CLHep average, Nontargeted Analyses (IMS-MS): 1µM mixture; for Level of metabolism through nontargeted methods: % remaining by IMS-MS
Protocol: (§1) Suspension assays using iHep were performed as previously detailed with slight modification. In brief, pre-differentiated iHep were suspended in iHep maintenance media and adjusted to the cell concentration of 1 × 10^6 cells/mL. A portion of the cell working stock was heated at 95 °C for five minutes to serve as negative control. Five hundred microliters of the chemical stock (20 chemicals, 2 or 10 µM each) were spiked in 500 µL of the cell working stock or heat-inactivated cell control to a final cell density of 5 × 10^5 cells/mL. Fifty microliters were removed subsequently at 0, 60, 120, and 240 min to individual 1.5 mL Eppendorf tubes for further sample extraction detailed below. Each experimental condition was replicated three times.
All nontargeted analyses were performed using a 6560 IMS-QTOF MS (Agilent Technologies) as detailed previously. All individual standards for pesticide parent compounds (n = 20) and known metabolites (n = 10) were directly injected in triplicate into the electrospray ionization (ESI) source (positive and negative mode) and atmospheric pressure photo-ionization (APPI, negative mode only) to obtain collision cross section (CCS) and mass-to-charge ratio (m/z) values. Blanks were injected between standards to reduce the likelihood of carryover. For sample analyses, ESI was chosen as the optimal source to detect analytes in either positive or negative mode. During IMS-MS analyses, ions were passed through the inlet glass capillary, focused by a high-pressure ion funnel, and accumulated in an ion funnel trap. Next, ions were pulsed into the 78.24 cm-long IMS drift tube filled with nitrogen gas at a pressure of approximately 3.95 torr (527 Pa). Ions exiting the drift tube were refocused by a rear ion funnel prior to quadrupole time-of-flight (QTOF) MS detection. Detailed instrumental settings in ESI mode can be found in Table S1. Prior to instrumental analysis, the IMS-MS was tuned and a mass calibration was performed using Agilent Tune Mix from the manufacturer (Cat No.: G2421-60001, Agilent Technologies).
In vitro hepatocyte clearance (Clin vitro) of each chemical was estimated by substrate depletion approach assuming first-order kinetics for compound elimination: Clin vitro = kV/N, where k = first-order elimination rate constant, V = incubation volume, and N = number of cells in the incubation. Clin vitro was further scaled up to the intrinsic hepatocyte clearance (Clint) according to the equation [38]:Clint = Clin vitro × HPGL × Vl(1) where HPGL = hepatocytes per gram liver (137 × 10^6 cells/g) and Vl = volume of the whole liver (1820 g).

[2] = system: induced pluripotent stem cell-derived hepatocytes (iHep) suspension; experiment: In vitro hepatocyte clearance in iHep suspension, targeted LC-MS/MS and GC-MS/MS; assay type: in vitro ADME, human; details: 1 µM equimolar mixture, approximate values
Protocol: as §1
Sample extraction procedures and chromatographic conditions were previously reported in [34]. In brief, each sample (50 µL) was spiked with 10 µL of 10 µM internal standards, mixed with 100 µL of chilled acetonitrile, and then centrifuged at 10,000× g for 5 min. The supernatant was dried under vacuum using SpeedVac (Savant SPD1010, Beckman Coulter, Brea, CA, USA) and reconstituted with 50 µL of aqueous mobile phase prior to analyses. LC-MS/MS analysis was performed using 1290 Infinity II LC and 6470 triple quadrupole mass spectrometer (both instruments from Agilent Technologies, Santa Clara, CA, USA). Sample extract (10 µL) was chromatographed on a ZORBAX SSHD Eclipse Plus C18 column (3.0 × 50 mm, 1.8 µm, Cat No.: 959757-302; Agilent Technologies) with a guard column (2.1 × 5 mm, 1.8 µm, Cat No.: 821725-901; Agilent Technologies), and ionized using electrospray ionization. Analytical response was acquired in both positive and negative modes.
For positive ion compounds, mobile phases consisted of 0.1% formic acid in water (A) and 0.1% formic acid in methanol (B) using the following gradient: 2% B held for 1 min, B increased to 80% by 3 min, B increased to 95% by 4 min, B decreased to 2% by 5 min and held for 3 min for a total run time of 8 min per sample at a flow rate of 0.4 mL/min. For negative ion compounds, the LC gradient and flow rate were the same as in positive mode, except that mobile phase A was water and mobile phase B was acetonitrile.
Fifty microliters of media sample were spiked with 10 µL of 10 µM internal standards, mixed with 50 µL of methanol and 200 µL of pentane: diethyl ether (1:1 v/v), vortexed briefly, and then centrifuged at 600× g for 5 min. Organic layer supernatants were transferred to a 2 mL amber vial and concentrated under nitrogen prior to GC analysis. Detection of analytes was achieved using a 7890B GC and 7010B triple quadrupole mass spectrometer (both from Agilent Technologies). Samples were injected (1 µL) in splitless mode. Analytes were separated with a VF-5ms GC column (60 m × 250 µm × 0.25 µm, Cat No.: CP8960; Agilent Technologies) and ionized using electron ionization. The column head pressure was set at 21.5 psi (148,237 Pa) with a constant flow rate at 1.2 mL/min using helium gas. Initial column temperature was held at 70 °C for 5 min, increased to 150 °C at 50 °C/min, ramped to 280 °C at 4 °C/min, and then held […]. The total run time was 42.1 min. The injector temperature was set at 250 °C. The ion source and auxiliary transfer line temperatures were 300 °C. Electron multiplier voltage was set at 1884 V. Ultra-high purity nitrogen gas was used as the collision gas for all MS/MS experiments, and collision gas pressure was set at 16.8 psi (115,832 Pa).
In vitro hepatocyte clearance (Clin vitro) of each chemical was estimated by substrate depletion approach assuming first-order kinetics for compound elimination: Clin vitro = kV/N, where k = first-order elimination rate constant, V = incubation volume, and N = number of cells in the incubation. […]

Compound | CLHep average, Nontargeted Analyses (IMS-MS) [1] | Level of metabolism through nontargeted methods ([1]; 1 µM mixture) | Clearance rate in suspension cultures [2] | Metabolite formation (IMS-MS abundance) ([1]; 1 µM mixture, relative abundance among the five detected metabolites)
O=[N+]([O-])c1ccc(O)c([N+](=O)[O-])c1 [2,4-Dinitrophenol] | 8.886 µL/min/106 hepatocytes | high levels of metabolism | 5 to 14 µL/min/10^6 hepatocytes | 
COP(=S)(OC)SCn1nnc2ccccc2c1=O [Azinphos-methyl] | 8.987 µL/min/106 hepatocytes | high levels of metabolism | 5 to 14 µL/min/10^6 hepatocytes | 
CCOP(=S)(OCC)Oc1nc(Cl)c(Cl)cc1Cl [Chlorpyrifos] | 7.82 µL/min/106 hepatocytes | high levels of metabolism | 5 to 14 µL/min/10^6 hepatocytes | 
CCOP(=S)(OCC)Oc1cc(C)nc(C(C)C)n1 [Diazinon] | 2.285 µL/min/106 hepatocytes |  | 5 to 14 µL/min/10^6 hepatocytes | 
CCOP(=S)(OCC)SCCSCC [Disulfoton] | 5.305 µL/min/106 hepatocytes | high levels of metabolism | 5 to 14 µL/min/10^6 hepatocytes | 
CCOP(=S)(OCC)SCSP(=S)(OCC)OCC [Ethion] | 5.216 µL/min/106 hepatocytes | high levels of metabolism | 5 to 14 µL/min/10^6 hepatocytes | 
CCOP(O)(=S)OCC [diethylthiophosphate] |  |  |  | formed at the highest amount
